The subject of experiment [1] is mGluR5. Nature of the experiment: Single molecule FRET (smFRET) of SNAP-mGluR5 dimers, TIRF microscopy. Type of experiment: biochemical. Particulars: 0.8 mM glutamate; absence of ligand ~0.5. As to the method:
(§1) However, the goal was to target the native, unmodified proteins in cells, tissues or the intact organism, and this would require the affinity moiety to attach directly to the target protein, something that could impact function of the target protein. […] This notion was tested by asking whether there would be a functional impact of nanobody binding to an mGluR. For this purpose, mGluR5 was selected. mGluR5 is a Gq-coupled receptor whose activation stimulates phospholipase C to generate IP3 and trigger the release of calcium from internal stores, which could detect with the calcium indicator FLUO-4 that was loaded into the cells in its AM ester form. […] The activation of the receptor by NB-8260 could be directly detected using single molecule fluorescence resonance energy transfer (smFRET). SNAP-mGluR5 dimers labeled in HEK293 cells with a mixture of FRET donor and acceptor (green and red) BG dyes were isolated by cell lysis and immune-purified and immobilized at low density on a passivated glass surface (FIG. 6A) for total internal reflection fluorescence (TRIF) microscopy. Individual spots containing both the green and red dye (i.e. one on each subunit of the dimer) were selected for analysis and FRET levels measured: i) in the absence of ligand; ii) in 0.8 mM glutamate; iii) in the presence of a nanobody; or iv) in a combination of 0.8 mM glutamate and the nanobody. […]

Experiment [2] addresses T1, mGluR5 (Homo sapiens, UniProt P41594).
T1 construct: expressed in transfected cells; host or cells: HEK293 cells
As to the kind of experiment: Calcium waves (FLUO-4) in HEK293 cells expressing mGluR5. Format: cell-based. Particulars: HEK293 cells expressing mGluR5, FLUO-4. As to the method:
as §1

T1 sequence (P41594 21-1212): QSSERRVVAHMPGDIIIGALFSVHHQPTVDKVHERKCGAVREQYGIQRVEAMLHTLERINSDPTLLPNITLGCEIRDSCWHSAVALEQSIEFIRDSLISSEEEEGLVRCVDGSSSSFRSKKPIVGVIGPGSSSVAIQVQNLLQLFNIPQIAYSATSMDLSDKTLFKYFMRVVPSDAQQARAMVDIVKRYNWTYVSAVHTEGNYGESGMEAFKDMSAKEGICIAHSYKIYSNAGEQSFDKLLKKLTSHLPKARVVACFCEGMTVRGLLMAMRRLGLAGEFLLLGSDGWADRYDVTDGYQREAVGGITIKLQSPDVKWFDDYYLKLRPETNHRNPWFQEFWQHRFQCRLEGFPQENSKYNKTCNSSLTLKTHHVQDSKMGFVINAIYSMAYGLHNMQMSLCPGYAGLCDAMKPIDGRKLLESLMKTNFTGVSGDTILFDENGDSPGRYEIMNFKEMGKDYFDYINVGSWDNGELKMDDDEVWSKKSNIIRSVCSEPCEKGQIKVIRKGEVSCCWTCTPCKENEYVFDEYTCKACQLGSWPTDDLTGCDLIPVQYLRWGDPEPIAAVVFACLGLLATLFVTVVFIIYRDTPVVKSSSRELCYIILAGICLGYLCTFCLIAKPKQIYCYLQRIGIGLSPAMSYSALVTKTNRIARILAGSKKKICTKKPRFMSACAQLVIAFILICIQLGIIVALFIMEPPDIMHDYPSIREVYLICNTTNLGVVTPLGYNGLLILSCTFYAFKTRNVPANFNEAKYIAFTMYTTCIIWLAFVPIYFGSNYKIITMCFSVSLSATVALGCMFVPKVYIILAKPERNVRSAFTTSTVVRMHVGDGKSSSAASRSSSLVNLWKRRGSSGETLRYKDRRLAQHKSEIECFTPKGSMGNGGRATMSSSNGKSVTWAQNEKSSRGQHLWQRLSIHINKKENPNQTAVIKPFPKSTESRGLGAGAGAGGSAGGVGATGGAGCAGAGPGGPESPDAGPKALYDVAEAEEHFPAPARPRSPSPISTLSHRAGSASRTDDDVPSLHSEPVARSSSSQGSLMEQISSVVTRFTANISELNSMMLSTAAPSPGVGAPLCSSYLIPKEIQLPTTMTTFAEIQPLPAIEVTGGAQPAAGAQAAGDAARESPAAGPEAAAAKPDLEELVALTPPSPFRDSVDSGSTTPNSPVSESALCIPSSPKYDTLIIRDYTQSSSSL

As for `N[C@@H](CCC(=O)O)C(=O)O` [glutamate], in experiment [1], the FRET level is reported as around 0.3. For the same compound, the “activation of calcium waves” value in experiment [2] is “activates calcium waves”.

(Values after patent publication US20200308539A1, “AFFINITY-TAGGED PHOTOSWITCHES AND METHODS OF USE THEREOF” (The Regents of the University of California, priority 2017, published 2020).)
